Experimental data as given in patent US11643439B2, “Multi-target compound with anticoagulation and antiplatelet activity, preparation method therefor, and use thereof” (SHAANXI MICOT TECHNOLOGY LIMITED COMPANY, priority 2015, dated 2023).
Marks after values point to notes of the source that are not given here.

Key:
[1] = system: blood coagulation function; assay: APTT in rabbits, single intravenous administration; format: in vivo, rabbit
Experimental: (§1) 1. Grouping and administration: 48 Rabbits were randomly divided into 6 groups, 8 rabbits per group. 1) Sham operation group (NS): Intravenous injection of the same volume of physiological saline; 2) positive control bivalirudin group (6 mg/kg); 3) positive control enoxaparin group (200 U/kg); 4) Low dose group of polypeptide 2 (3.0 mg/kg); 5) Medium dose group of polypeptide 2 (6.0 mg/kg); 6) High dose group of polypeptide 2 (12.0 mg/kg). Polypeptide 2 was administered by single intravenous administration. According to the body weight in kilograms of the rabbits, the sample was dissolved in 2 mL of physiological saline for single bolus injection. The sham operation group was administered with the same volume of physiological saline.
(§2) 3.2 Determination of blood coagulation function: Blood samples were taken and the blood function (PT, TT, APTT) was determined at 0 min before administration, at points of 5 min and 15 min after administration, using a platelet-aggregation coagulation factor analyzer. Blood samples were centrifuged at 3510 rpm for 8 min to obtain platelet poor plasma (PPP). Reagent reconstruction and preservation were performed according to the operation requirements of the kit. Immediately after each blood sample was placed into a test cup and then added with PT. TT and APTT reagents, the test was started. After the test was completed, results were recorded.

whole blood coagulation = assay: ACT in rabbits, single intravenous administration; format: in vivo, rabbit
Experimental: as §1
3.3 Determination of ACT: At 0 min before administration and at points of administration for 5 min and 15 min, the whole blood was taken, to which kaolin was added, and placed in a water bath at 37° C. to record the whole blood coagulation time.

[2] = system: blood coagulation function; assay: PT in rabbits, single intravenous administration; format: in vivo, rabbit
Experimental: as §1, §2

[3] = system: blood coagulation function; assay: PT in rats, intravenous maintenance administration; format: in vivo, rat
Experimental: (§3) 160 Rats were randomly divided into groups, 5 to 10 rats per group.
(§4) According to the body weight in kilograms of the rats, the first dose of a drug was dissolved in 2 mL of physiological saline for single bolus injection. The maintaining dose of drug was dissolved in 9 ml of physiological saline, and placed in a double-channel micro-injection pump, which was dripped off within 90 minutes at a dripping speed of 0.1 ml/min. The sham operation group was administered with the same volume of physiological saline.
(§5) The rats were fasted with free access to water overnight before the experiment.
The blood samples were taken before administration, administration for 60 minutes, and before termination of administration, respectively, to determine their activated partial thromboplastin time (APTT) and prothrombin time (PT). The blood samples were centrifuged at 3510 rpm for 8 minutes to obtain platelet poor plasma (PPP). Reagent reconstruction and preservation were performed according to the operation requirements of the kit. Immediately after each blood sample was placed into a test cup and then PT and APTT reagents were added, the test was started. After the test was completed, results were recorded.
5.1 Determination of blood coagulation function: The blood samples were taken 0 min before administration, administration for 60 minutes, and termination of administration, respectively, and then determined using a platelet-aggregation coagulation factor analyzer for the blood coagulation functions (PT. APTT) and ACT.

[4] = system: FeCl3-induced common carotid arterial thrombosis; assay: FeCl3-induced common carotid arterial thrombosis in rats; format: in vivo, rat
Experimental: as §3, §4, §5
After administration at a load dosage maintenance for 30 minutes, a filter paper with a 3 mm diameter and immersed with 35% FeCl3 solution was applied below the common carotid artery, below which a small piece of a plastic film (2.5 cm×2.0 cm) was placed to protect surrounding tissues. The body temperature was detected with a temperature probe in the distal end of the artery, and the time required from the beginning of stimulation to the point when the temperature decreased by 2.5 degrees was examined as the vascular occlusion time.
The time from the point when FeCl3 was placed to the point when the temperature of the artery indicated a decrease of 2.5° C. was the vascular occlusion time, which reflected the state of thrombus formation.

[5] = single iv 3.0 mg/kg, Administration 5 min
[6] = single iv 3.0 mg/kg, Administration 15 min
[7] = single iv 3.0 mg/kg, Administration for 5 min
[8] = single iv 3.0 mg/kg, Administration for 15 min
[9] = single iv 3.0 mg/kg, Before administration
[10] = single iv 6.0 mg/kg, Administration 5 min
[11] = single iv 6.0 mg/kg, Administration 15 min
[12] = single iv 6.0 mg/kg, Administration for 5 min
[13] = single iv 6.0 mg/kg, Administration for 15 min
[14] = single iv 6.0 mg/kg, Before administration
[15] = single iv 12.0 mg/kg, Administration 5 min
[16] = single iv 12.0 mg/kg, Administration 15 min
[17] = single iv 12.0 mg/kg, Administration for 5 min
[18] = single iv 12.0 mg/kg, Administration for 15 min
[19] = single iv 12.0 mg/kg, Before administration
[20] = single iv 6.0 mg/kg, After administration 5 min
[21] = single iv 6.0 mg/kg, After administration 15 min
[22] = iv 0.041 + 0.125 (mg/kg + mg/kg/h)
[23] = iv 0.125 + 0.375 (mg/kg + mg/kg/h)
[24] = iv 0.25 + 0.75 (mg/kg + mg/kg/h)
[25] = iv 0.5 + 1.25 (mg/kg + mg/kg/h)
[26] = iv 1.5 + 3.75 (mg/kg + mg/kg/h)
[27] = iv 0.08 + 0.325 (mg/kg + mg/kg/h)
[28] = iv 0.17 + 0.65 (mg/kg + mg/kg/h)
[29] = iv 0.35 + 1.3 (mg/kg + mg/kg/h)

D-Phe Pro Arg Pro Gly Gly Gly Gly Asn Gly Asp Phe Glu Glu Ile Pro Glu Glu Tyr Leu Glu Ala Ala Ala Lys Cys Har Gly Asp Trp Pro Cys [Polypeptide 2]
APTT fold of prolongation [1, 5]: 1.2 ± 0.2 | APTT fold of prolongation [1, 6]: 1.0 ± 0.1 | APTT [1, 7]: 24.4 ± 4.2*^¥ s | APTT [1, 8]: 20.0 ± 3.1 s | APTT [1, 9]: 20.6 ± 1.2 s | APTT fold of prolongation [1, 10]: 2.1 ± 0.6 | APTT fold of prolongation [1, 11]: 1.5 ± 0.4 | APTT [1, 12]: 50.5 ± 3.6*^& s | APTT [1, 13]: 34.9 ± 2.7*^& s | APTT [1, 14]: 24.1 ± 1.0 s | APTT fold of prolongation [1, 15]: 2.3 ± 0.6 | APTT fold of prolongation [1, 16]: 1.6 ± 0.5 | APTT [1, 17]: 54.4 ± 3.6*^& s | APTT [1, 18]: 37.0 ± 2.7*^& s | APTT [1, 19]: 23.3 ± 1.0 s | ACT (whole blood coagulation; [7]): 352.5 ± 40.7^¥ s | ACT (whole blood coagulation; [8]): 337.5 ± 27.8*^¥ s | ACT fold of prolongation (whole blood coagulation; single iv 3.0 mg/kg, After administration 5 min): 1.0 ± 0.2 | ACT fold of prolongation (whole blood coagulation; single iv 3.0 mg/kg, After administration 15 min): 1.0 ± 0.1 | ACT (whole blood coagulation; [9]): 357.5 ± 27.7 s | ACT (whole blood coagulation; [12]): 356.3 ± 35.3^¥ s | ACT (whole blood coagulation; [13]): 324.4 ± 24.1*^¥ s | ACT fold of prolongation (whole blood coagulation; [20]): 1.7 ± 0.7 | ACT fold of prolongation (whole blood coagulation; [21]): 1.6 ± 0.9 | ACT (whole blood coagulation; [14]): 232.5 ± 24.0 s | ACT (whole blood coagulation; [17]): 505.6 ± 35.3*^¥&@ s | ACT (whole blood coagulation; [18]): 418.1 ± 24.1*^¥ s | ACT fold of prolongation (whole blood coagulation; single iv 12.0 mg/kg, After administration 5 min): 1.7 ± 0.6 | ACT fold of prolongation (whole blood coagulation; single iv 12.0 mg/kg, After administration 15 min): 1.4 ± 0.3 | ACT (whole blood coagulation; [19]): 315.0 ± 24.0 s | PT fold of prolongation [2, 5]: 1.5 ± 0.4 | PT fold of prolongation [2, 6]: 1.2 ± 0.2 | PT [2, 7]: 8.9 ± 1.2 S | PT [2, 8]: 7.0 ± 0.8 S | PT [2, 9]: 6.0 ± 0.3 S | PT fold of prolongation [2, 10]: 2.0 ± 0.4 | PT fold of prolongation [2, 11]: 1.4 ± 0.3 | PT [2, 12]: 12.9 ± 1.1*^#¥ S | PT [2, 13]: 8.9 ± 0.7 S | PT [2, 14]: 6.3 ± 0.2 S | PT fold of prolongation [2, 15]: 3.0 ± 0.8 | PT fold of prolongation [2, 16]: 2.0 ± 0.6 | PT [2, 17]: 19.2 ± 1.1 *^¥& S | PT [2, 18]: 12.5 ± 0.7 *^¥&@ S | PT [2, 19]: 6.5 ± 0.2 S | PT Before administration [3, 22]: 10.74 ± 3.97 | PT Fold of change [3, 22]: 1.95 ± 1.27 | PT administration for 60 minutes [3, 22]: 18.95 ± 8.65 | PT Before administration [3, 23]: 11.21 ± 1.62 | PT Fold of change [3, 23]: 1.70 ± 0.34 | PT administration for 60 minutes [3, 23]: 19.00 ± 4.39 | PT Before administration [3, 24]: 11.19 ± 1.06 | PT Fold of change [3, 24]: 1.87 ± 0.50 | PT administration for 60 minutes [3, 24]: 20.82 ± 5.66 | PT Before administration [3, 25]: 10.58 ± 1.48 | PT Fold of change [3, 25]: 2.53 ± 0.73 | PT Before administration ([3]; iv 1 + 2.5 (mg/kg + mg/kg/h)): 10.53 ± 1.29 | PT Fold of change ([3]; iv 1 + 2.5 (mg/kg + mg/kg/h)): 5.57 ± 2.74 | PT administration for 60 minutes ([3]; iv 1 + 2.5 (mg/kg + mg/kg/h)): 56.65 ± 23.16 | PT Before administration [3, 26]: 11.98 ± 1.02 | PT Fold of change [3, 26]: 3.91 ± 1.89 | PT administration for 60 minutes [3, 26]: 46.64 ± 23.46 | Common carotid arterial thrombosis OT [4, 22]: 20.20 ± 10.00 min | Common carotid arterial thrombosis Fold of prolongation [4, 23]: 27.99 | Common carotid arterial thrombosis OT [4, 23]: 16.23 ± 6.76 min | Common carotid arterial thrombosis Fold of prolongation [4, 24]: 36.85 | Common carotid arterial thrombosis OT [4, 24]: 14.23 ± 4.82 min | Common carotid arterial thrombosis OT [4, 25]: 9.25 ± 4.86 min | Common carotid arterial thrombosis Fold of prolongation ([4]; iv 1 + 2.5 (mg/kg + mg/kg/h)): 56.03 | Common carotid arterial thrombosis OT ([4]; iv 1 + 2.5 (mg/kg + mg/kg/h)): 9.91 ± 6.20 min | Common carotid arterial thrombosis OT [4, 26]: 7.13 ± 3.46 min

Bivalirudin: Bivalirudin for Injection, Xi'an Xintong Pharmaceutical Research Co., Ltd.; positive control thrombin inhibitor
APTT fold of prolongation [1, 10]: 2.4 ± 0.3 | APTT fold of prolongation [1, 11]: 1.4 ± 0.3 | APTT [1, 12]: 50.4 ± 3.6 s | APTT [1, 13]: 30.9 ± 2.7 s | APTT [1, 14]: 21.6 ± 1.0 s | ACT (whole blood coagulation; [12]): 443.8 ± 35.3 s | ACT (whole blood coagulation; [13]): 375.0 ± 24.1*^ s | ACT fold of prolongation (whole blood coagulation; [20]): 1.5 ± 0.3 | ACT fold of prolongation (whole blood coagulation; [21]): 1.3 ± 0.4 | ACT (whole blood coagulation; [14]): 305.6 ± 24.0 s | PT fold of prolongation [2, 10]: 3.0 ± 0.5 | PT fold of prolongation [2, 11]: 1.6 ± 0.2 | PT [2, 12]: 18.8 ± 1.1 S | PT [2, 13]: 10.2 ± 0.7 S | PT [2, 14]: 6.4 ± 0.2 S | PT Before administration [3, 27]: 10.42 ± 1.16 | PT Fold of change [3, 27]: 1.82 ± 0.24 | PT administration for 60 minutes [3, 27]: 18.95 ± 3.36 | PT Before administration [3, 28]: 11.16 ± 1.28 | PT Fold of change [3, 28]: 1.99 ± 0.78 | PT administration for 60 minutes [3, 28]: 21.85 ± 7.38 | PT Before administration [3, 29]: 11.73 ± 1.48 | PT Fold of change [3, 29]: 3.54 ± 1.45 | PT administration for 60 minutes [3, 29]: 42.58 ± 21.94 | PT Before administration ([3]; iv 0.5 + 2 (mg/kg + mg/kg/h)): 7.87 ± 1.93 | PT Fold of change ([3]; iv 0.5 + 2 (mg/kg + mg/kg/h)): 4.46 ± 1.47 | PT administration for 60 minutes ([3]; iv 0.5 + 2 (mg/kg + mg/kg/h)): 39.13 ± 7.30 | Common carotid arterial thrombosis Fold of prolongation [4, 27]: 1.79 ± 0.06 | Common carotid arterial thrombosis OT [4, 27]: 44.75 ± 1.53 min | Common carotid arterial thrombosis Fold of prolongation [4, 28]: 2.24 ± 0.24 | Common carotid arterial thrombosis OT [4, 28]: 56.00 ± 6.03 min | Common carotid arterial thrombosis Fold of prolongation [4, 29]: 2.23 ± 0.33 | Common carotid arterial thrombosis OT [4, 29]: 55.63 ± 8.21 min | Common carotid arterial thrombosis Fold of prolongation ([4]; iv 0.5 + 2 (mg/kg + mg/kg/h)): 2.32 ± 0.23 | Common carotid arterial thrombosis OT ([4]; iv 0.5 + 2 (mg/kg + mg/kg/h)): 58.00 ± 5.77 min
